# Structures can show the parent of a compound that is named as a salt. Where two headings read alike, the source gives them in different places.
# Key:
# isolated rat left atrium = assay: Isolated rat left atrium: inotropic activity (force); details: for Activity in isolated rat left atrium and right atrium (in words): Table I and text; for EC50 / Emax: Rattus norvegicus; for EC50: read-out: EC50, left atrium (force); for Inotropic activity of diastereoisomeric mixture (in words): rat isolated left atrium
# Description: (§1) The inotropic and chronotropic effects of compound (Ia) of the invention were determined in vitro using, respectively, isolated rat left atrium and right atrium.
# Left atrium:inotrocic activity
# The atria were subjected to a 0.5 g starting tension and suspended in a bath containing aerated Krebs-Henseleit j solution with 95% O2 and […] kept at 32.C. The preparation was stimulated at a 4 Hz frequency with pulses during 5 msec each. The contraction strength was detected by an isometric transducer and recorded on a microndynamometer.
# (§2) The results were expressed as the percentage of the response obtained with a maximal dose ([…]) of isoproterenol which was determined at the beginning of the test. In Table 1 the potency (EC50=effective concentration inducing the 50% of the maximal effect) and the relative intrinsic activity (expressed as α and compared with that of isoproterenol, taken=1) are shown.
# (§3) The effects of the compounds were evaluated in rat isolated atria according to the previously described method.
# (§4) Table 3. Potency (EC50) and intrinsic activity (α;isoproterenol=1) on the isolated rat left atrium (Inotropic activity) and right atrium (chronotropic activity).
# [1] = test system: isolated rat right atrium; assay: Isolated rat right atrium: chronotropic activity (frequency); details: Rattus norvegicus; for EC50: read-out: EC50, right atrium (frequency)
# Description: as §1
# Right atrium:chronotrpic activity
# The preparation was prepared in the same way and under the same conditions as described above, but was not subjected to electric stimulation. Frequency was monitored by a cardiotachograph.
# as §2, §3, §4
# anesthetized dog = assay: Anesthetized dog: cardiovascular activity; type: in vivo, Beagle dog; details: anesthetized dog, i.v.
# Description: The interesting hemodynamic properties of CHF 1255 were confirmed in vivo in the anesthetized dog.
# Anesthesized dog: cardiovascular activity
# Beagle dogs were anesthetized with sodium pentobarbital (30 mg/kg iv) thoracotomized and monitored by recording cardiocirculatory parameters.
# CHF 1255 and the reference drugs (amrinone and xamoterol) were administered i.v. in a bolus.
# CHF 1255 at the doses of 0.3-1.3 μmoles/kg i.v. confirmed its activity in changing hemodynamic parameters.
# beta-1 = details: background art, cited from earlier work
# [2] = test system: arterial rat hind quarter; assay: Rat perfused hind quarter; vasodilating action; details: for Emax: Rattus norvegicus; for ED40, K+ induced contraction / ED40, norepinephrine induced contraction / ED40, 5-HT induced contraction: dose decreasing contraction by 40%; for ED40, K+ induced contraction: K+ 40 mM; for ED40, 5-HT induced contraction: serotonin 5×10^-7 M
# Description: Rat perfused hind quarter; vasodilating action
# The vasodilating effect of CHF 1255 has been evaluated in the arterial rat hind quarter perfused with Krebs-Henseleit solution at constant flow.
# The increase of arterial resistance was induced by K^+ -enriched solution (40 mM), norepinephrine (5×10^-6 M) and serotonin (5×10^-7 M).
# Papaverine and prazosin, powerful α-blocker vasodilator, were used as reference compounds.
# ED40 =dose (moles) decreasing of 40% the contraction induced by the agonist. 100% was considered as the complete recduction of contraction.
# [3] = target: T1, beta-2 adrenergic receptors (Cavia porcellus, UniProt Q8K4Z4); assay: Isolated guinea-pig trachea: interactions with beta-2 adrenergic receptors (relaxation of carbachol contraction); details: for EC50: guinea-pig trachea, carbachol 3×10^-7 M
# T1 construct: Trachea strips were isolated and prepared according to the method described by Emerson J and Machay D; from tissue; host or cells: guinea-pig isolated trachea strips
# Description: The selectivity of this interaction has been studied by evaluating the effects on beta-2 adrenergic receptors, in the guinea-pig isolated trachea, using CHF 1026 as reference compound.
# Isolated guinea-pig trachea: interactions with beta-2 adrenergic receptors
# Trachea strips were isolated and prepared according to the method described by Emerson J and Machay D in J Pharm Pharmacol 1979, 31, 798, immersed in Krebs-Henseleit solution (37° C., 95% O2 +5% CO2), subjected to an initial tension of 1 g and contracted with carbachol (3×10^-7 M).
# Dose-response curves of CHF 1255 and CHF 1026 were recorded in the absence and in the presence of 10^-6 M propranolol, used as antagonist and added to the bath before the stimulation with carbachol.
# The obtained results are shown in Table 2, expressed as potency (EC50 calculated from t he dose--response curve) and intrinsic activity (α, isoproternol=1).
# [4] = Table I, isolated rat left atrium, 4 Hz stimulation, confidence limits in parentheses
# [5] = Table I, isoproterenol taken=1, confidence limits in parentheses, read-out: α (intrinsic activity), left atrium (force)
# [6] = Table I, isolated rat right atrium, confidence limits in parentheses
# [7] = Table I, isoproterenol taken=1, confidence limits in parentheses, read-out: α (intrinsic activity), right atrium (frequency)
# [8] = Table 3, inotropic activity, rat left atrium
# [9] = Table 3, isoproterenol=1, read-out: α, left atrium (force)
# [10] = Table 3, chronotropic activity, rat right atrium
# [11] = Table 3, isoproterenol=1, read-out: α, right atrium (frequency)
# T1 sequence (Q8K4Z4 whole entry): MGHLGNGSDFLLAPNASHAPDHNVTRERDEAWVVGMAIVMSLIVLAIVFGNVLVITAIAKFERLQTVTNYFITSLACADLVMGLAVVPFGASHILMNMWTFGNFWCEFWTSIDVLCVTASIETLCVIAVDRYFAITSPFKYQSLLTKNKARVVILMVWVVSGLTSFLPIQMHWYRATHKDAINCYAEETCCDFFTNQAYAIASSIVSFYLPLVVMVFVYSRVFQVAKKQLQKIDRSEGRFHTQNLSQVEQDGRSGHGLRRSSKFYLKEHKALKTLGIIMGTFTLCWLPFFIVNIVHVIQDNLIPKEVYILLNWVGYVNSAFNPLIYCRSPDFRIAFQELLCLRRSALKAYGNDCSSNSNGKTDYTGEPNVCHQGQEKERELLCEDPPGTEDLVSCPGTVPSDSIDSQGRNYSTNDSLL
structure (smiles),measurement,setting,value
COc1ccc2c(c1OC)CCC(NCC(O)c1ccc(O)cc1)C2 (centres unmarked) [CHF 1296],Activity in isolated rat left atrium and right atrium (in words),isolated rat left atrium,completely inactive
"O=C(NCCNCC(O)COc1ccc(O)cc1)N1CCOCC1 (centres unmarked) [xamoterol, xamoterol fumarate]",EC50,isolated rat left atrium,4.98 nM
same,Emax,"isolated rat left atrium; read-out: α, left atrium (force)",33%
same,EC50,[1],4.71 nM
same,Emax,"[1]; read-out: α, right atrium (frequency)",76%
same,Hemodynamic effects (in words),anesthetized dog,negligible
same,Agonistic action relative to isoproterenol,beta-1; % that of isoproterenol,40%
same,Tolerability (in words),beta-1; vs prenalterol,better tolerated
COc1cc2nc(N3CCN(C(=O)c4ccco4)CC3)nc(N)c2cc1OC [prazosin],Emax,"[2]; 100% = complete reduction, norepinephrine 5×10^-6 M, read-out: α (efficacy), norepinephrine induced contraction",96%
same,"ED40, K+ induced contraction",[2],inactive
same,"ED40, norepinephrine induced contraction",[2]; norepinephrine 5×10^-6 M,1.5e-11 mol
same,"ED40, 5-HT induced contraction",[2],inactive
COc1ccc2c(c1OC)CCC(NCC(O)c1cccc(O)c1)C2 (centres unmarked) [CHF 1297],Activity in isolated rat left atrium and right atrium (in words),isolated rat left atrium,completely inactive
"COc1ccc(Cc2nccc3cc(OC)c(OC)cc23)cc1OC [papaverine, Papaverine]",Activity against contraction by the different agents (in words),"[2]; K+, norepinephrine, serotonin",same ED40 for the different experimental conditions
same,Emax,"[2]; read-out: α (efficacy), 5-HT induced contraction",90%
same,Emax,"[2]; read-out: α (efficacy), K+ induced contraction",90%
same,Emax,"[2]; read-out: α (efficacy), norepinephrine induced contraction",95%
same,"ED40, K+ induced contraction",[2],6.5e-08 mol
same,"ED40, norepinephrine induced contraction",[2]; norepinephrine 5×10^-6 M,4.5e-08 mol
same,"ED40, 5-HT induced contraction",[2],5e-08 mol
"CC(CCc1ccc(O)cc1)NC1CCc2cc(O)c(O)cc2C1 (centres unmarked) [CHF 1026, 2-[1-(4-hydroxyphenyl)-but-3-ylamino]-6,7-dihydroxy-1,2,3,4-tetrahydronaphthalene, reference compound]",EC50,isolated rat left atrium; [4],900 nM
same,Emax,isolated rat left atrium; [5],81%
same,EC50,[1]; [6],130 nM
same,Emax,[1]; [7],86%
same,Effect of propranolol on dose-response curve,[3]; 10^-6 M propranolol,"parallelely shifted to the right, showing a competitive antagonistic action"
same,Emax,"[3]; guinea pig, isoproterenol=1, without propranolol, read-out: α in absence of propranolol",99%
same,EC50,"[3]; with 10^-6 M propranolol, read-out: EC50 in presence of propranolol",130000 nM
same,EC50,"[3]; without propranolol, read-out: EC50 in absence of propranolol",230 nM
same,α in presence of propranolol,"[3]; isoproterenol=1, with 10^-6 M propranolol",0.94
"COc1ccc2c(c1OC)CCC(N[C@H](C)[C@@H](O)c1ccc(O)cc1)C2 (some centres unmarked) [CHF 1388, (αR,βS)-5,6-dimethoxy-2-[2-(4-hydroxyphenyl)-2-hydroxy-1-methylamino]-2-hydroxy-I-methylethylamino]--,2,3,4-tetrahydronaphthalene hydrochloride]",Inotropic activity of diastereoisomeric mixture (in words),isolated rat left atrium,did not show any inotropic activity
same,Contribution to vasodilating activity of CHF 1255,[2],vasodilating activity of CHF 1255 is mainly due to CHF 1388
"COc1ccc2c(c1OC)CCC(N[C@@H](C)[C@H](O)c1ccc(O)cc1)C2 (some centres unmarked) [CHF 1389, (αS, βR)-5,6-Dimethoxy-2-[2-(4-hydroxyphenyl)-2-hydroxy-1-methylethylemino]-1,2,3,4-tetrahydronaphthalene hydrochloride]",Inotropic activity of diastereoisomeric mixture (in words),isolated rat left atrium,as effective as CHF 1255 in the rat isolated left atrium
NCCc1ccc(O)c(O)c1 [dopamine],EC50,isolated rat left atrium; [8],1190 nM
same,EC50,isolated rat left atrium; [4],1200 nM
same,Emax,isolated rat left atrium; [9],95%
same,Emax,isolated rat left atrium; [5],95%
same,EC50,[1]; [10],1890 nM
same,EC50,[1]; [6],1900 nM
same,Emax,[1]; [11],106%
same,Emax,[1]; [7],106%
Nc1cc(-c2ccncc2)c[nH]c1=O [amrinone],EC50,isolated rat left atrium; [8],26600 nM
same,Emax,isolated rat left atrium; [9],29%
same,EC50,[1]; [10],155000 nM
same,Emax,[1]; [11],147%

# — patent publication US5096929A, “2-amino-1,2,3,4-tetrahydronaphthalene derivatives with cardiovascular activity, process for their preparation and pharmaceutical compositions containing them” (Chiesi Farmaceutici S.p.A., priority 1989, dated 1992)
